The source of these data is the NIST ThermoML archive (doi:10.1016/j.jct.2014.07.011).

A short description of data set [1]: Molar enthalpy of transition or fusion. The following applies: Crystal; DSC.
The conditions of data set [2]: Crystal; DTA.

Numbers after ± are expanded uncertainties.

With `CC(=O)S[C@@H]1CC2=CC(=O)CC[C@]2(C)[C@H]2CC[C@@]3(C)[C@@H](CC[C@@]34CCC(=O)O4)[C@H]12` [spironolactone], the “Molar enthalpy of transition or fusion” value in data set [1] turned out to be 4.96 ± 0.311 kcal/mol. The Normal melting temperature in data set [2] was found to be 208.42 ± 1.1 °C.
